Active and inactive are the calls of the source. The calls are words filed in the database; no cut-off is given here.

Usually IC50 stands for the midpoint of a concentration-inhibition curve.

In test [1] the test system is K562. Kind of test: Induction of apoptosis in human K562 cells at 50 uM after 48 hrs. It counts as functional.
For test [2], the system named is K562. The test is described as follows: Cell cycle arrest in human K562 cells assessed as accumulation at G2 phase at 50 uM after 48 hrs by propidium iodide staining-based FACS -Calibur flow cytometry. The format is functional.
Test [3] deals with K562. Kind of test: Anticancer activity against human K562 cells assessed as growth inhibition. It counts as functional, cell-based.
The subject of test [4] is K562. Kind of test: Induction of apoptosis in human K562 cells at 50 uM after 72 hrs. It counts as functional, cell-based.
The test system of test [5] is K562. Kind of test: Induction of apoptosis in human K562 cells at 100 uM after 72 hrs. The format is functional, cell-based.
The test system of test [6] is K562. The test is described as follows: Cell cycle arrest in human K562 cells assessed as slight accumulation at G1 phase at 50 uM after 48 hrs by propidium iodide staining-based FACS -Calibur flow cytometry. The format is functional.
Test [7] relates to K562. Kind of test: Cell cycle arrest in human K562 cells assessed as accumulation at S phase at 50 uM after 48 hrs by propidium iodide staining-based FACS -Calibur flow cytometry. It counts as functional. Background: In flow cytometry, cells or beads pass a laser one at a time.

For `COc1ccc2c(/C=C3\Oc4cc5ccccc5cc4C3=O)cc(=O)oc2c1`, the Activity is given as 24% with K562 [1] and 46% with K562 [2]. Consider `COc1ccc(/C=C2\Oc3c(cc(OC)c(OC)c3OC)C2=O)cc1O`, for which the IC50 with K562 [3] worked out at 50 µM. With `COc1ccc2c(C=O)cc(=O)oc2c1`, the outcome with K562 [4] and in the test with K562 [5] was Active. `Cc1cc2occ(/C=C3\Oc4cc5ccccc5cc4C3=O)c(=O)c2cc1C` returned an Activity with K562 [1] of 17%. Also, the result with K562 [6] was Active. For `Cc1ccc2c(c1)O/C(=C\c1coc3ccc(C)cc3c1=O)C2=O` the same measures were 24% and 72%. For the compound `COc1ccc2c(/C=C3\Oc4cc(C)ccc4C3=O)cc(=O)oc2c1`, the result with K562 [4], in the test on K562 [5] and with K562 [6] was Active. Moreover, the Activity in the test on K562 [1] came to 24%.

Take `O=C1/C(=C/c2coc3ccc(Cl)cc3c2=O)Oc2ccccc21`: the Activity in the test on K562 [7] amounted to 63%. On the same count and under the same terms, the entry for `Cc1ccc2c(c1)O/C(=C\c1coc3cc(Cl)ccc3c1=O)C2=O` is “Active”. `O=C1/C(=C/c2coc3ccccc3c2=O)Oc2cc3ccccc3cc21` displayed an Activity with K562 [1] of 17%. Turning to `Cc1ccc2occ(/C=C3\Oc4ccccc4C3=O)c(=O)c2c1`, the result in the test with K562 [7] was Active.

`COc1ccc2c(=O)c(/C=C3\Oc4ccccc4C3=O)coc2c1` displayed an Activity in the test with K562 [1] of 17%. Same read-out and setting: for `O=C1/C(=C/c2coc3ccc(Cl)cc3c2=O)Oc2cc3ccccc3cc21` the value was 17%. With `Cc1ccc2c(c1)O/C(=C\c1coc3ccccc3c1=O)C2=O`, the result with K562 [7] was Active. Same read-out and setting: for `O=C1/C(=C/c2coc3ccc(F)cc3c2=O)Oc2ccccc21` the value was “Active”.

In the case of `Cc1ccc2c(c1)O/C(=C\c1coc3ccc(Cl)cc3c1=O)C2=O`, in the test with K562 [7], the result was Active. With `COc1ccc(-c2cc(=O)c3cc(OC)c(OC)c(OC)c3o2)cc1O`, the IC50 with K562 [3] was 40 µM. On to `Cc1ccc2c(c1)O/C(=C\c1coc3ccc(F)cc3c1=O)C2=O`, for which, in the test with K562 [7], the result was Active. Compound `COc1cccc2occ(/C=C3\Oc4cc5ccccc5cc4C3=O)c(=O)c12` came in with an Activity in the test with K562 [1] of 17%. The outcome in the test on K562 [6] was Active.

For the compound `COc1ccc(/C=C2\Oc3cc(C)ccc3C2=O)cc1`, the outcome in the test with K562 [4] and in the test on K562 [5] was Active. The compound `O=C1/C(=C/c2coc3ccccc3c2=O)Oc2ccccc21` had an Activity in the test with K562 [1] of 17%.

Source of the values: ChEMBL document CHEMBL3132810, “Novel benzofuranchromone and coumarin derivatives: synthesis and biological activity in K562 human leukemia cells” (Medchemcomm, 2013).
